Data published in ChEMBL document CHEMBL5360639, “Cannabidiol Analogue CIAC001 for the Treatment of Morphine-Induced Addiction by Targeting PKM2” (J Med Chem, 2023).
Calls of active or inactive are those of the source. The calls are words filed in the database; no cut-off is given here.

Experiments:
BV-2 [1] = test: Anti-neuroinflammatory activity in mouse BV-2 cells assessed as inhibition of LPS-induced NO production incubated for 24 hrs by microplate reader analysis; assay type: functional, cell-based; conditions: BV-2, 24 h
[2] = Cytotoxicity against mouse BV-2 cells assessed as reduction in cell viability by crystal violet staining based assay; assay type: toxicity
[3] = Therapeutic index, ratio of IC50 for cytotoxicty against mouse BV-2 cells assessed as reduction in cell viability by crystal violet staining based assay to IC50 for nti-neuroinflammatory activity in mouse BV-2 cells assessed as inhibition of LPS-induced NO production; assay type: toxicity; conditions: read-out: Ratio IC50
BV-2 [4] = test: Anti-neuroinflammatory activity in LPS-induced mouse BV-2 cells assessed as reduction in […] mRNA expression by qRT-PCR analysis; assay type: functional, cell-based; conditions: dose 1-10 µM
BV-2 [5] = test: Anti-neuroinflammatory activity in LPS-induced mouse BV-2 cells assessed as reduction in TNF-alpha mRNA expression by qRT-PCR analysis; assay type: functional, cell-based; conditions: dose 1-10 µM
BV-2 [6] = test: Anti-neuroinflammatory activity in LPS-induced mouse BV-2 cells assessed as reduction in IL-6 mRNA expression by qRT-PCR analysis; assay type: functional, cell-based; conditions: dose 1-10 µM
BV-2 [7] = test: Anti-neuroinflammatory activity in LPS-induced mouse BV-2 cells assessed as formation of amoeboid-shaped cells at 10 uM incubated for 24 hrs by inverted microscopic analysis; assay type: functional, cell-based
BV-2 [8] = test: Anti-neuroinflammatory activity in LPS-induced mouse BV-2 cells assessed as reduction in iNOS mRNA expression at 10 uM incubated for 24 hrs by qRT-PCR analysis; assay type: functional, cell-based
BV-2 [9] = test: Anti-neuroinflammatory activity in LPS-induced mouse BV-2 cells assessed as reduction in IL-1beta mRNA expression at 10 uM incubated for 24 hrs by qRT-PCR analysis; assay type: functional, cell-based
BV-2 [10] = test: Anti-neuroinflammatory activity in LPS-induced mouse BV-2 cells assessed as reduction in […] mRNA expression at 10 uM incubated for 24 hrs by qRT-PCR analysis; assay type: functional, cell-based
Mus musculus [11] = test: Anti-neuroinflammatory activity in naloxone precipitated morphine-induced ip dosed BALB/c mouse assessed as reduction in naloxone precipitated withdrawal jumps administered with morphine 3 times daily for 3 days and on day 4 for 3 hrs prior to compound addition for 30 mins before naloxone addition and measured after 15 mins; assay type: functional, organism-based; conditions: dose 0.2-20 µg/kg, time 45.0 min
Mus musculus [12] = test: Anti-neuroinflammatory activity in morphine-induced BALB/c mouse assessed as inhibition of behavioral sensitization at 0.2 mg/kg, ip administered once daily for 7 days; assay type: functional, organism-based; conditions: time 7.0 day
Mus musculus [13] = test: Anti-neuroinflammatory activity in morphine-induced BALB/c mouse assessed as […] in locomotor activity 0.2 mg/kg, ip administered once daily for 7 days and measured after 60 mins; assay type: functional, organism-based; conditions: time 169.0 hrs
Mus musculus [14] = test: Anti-neuroinflammatory activity in morphine-induced BALB/c mouse assessed as decrease in conditioned place preference behavior 0.2 mg/kg, ip pretreated for 6 days followed by morphine induction and measured on days 5 to 9 days; assay type: functional, organism-based; conditions: time 11-15 day
Mus musculus [15] = test: Anti-neuroinflammatory activity in morphine-induced BALB/c mouse assessed as inhibition of IL-1beta expression in mPFC region 0.2 mg/kg, ip; assay type: functional, organism-based
Mus musculus [16] = test: Anti-neuroinflammatory activity in morphine-induced BALB/c mouse assessed as inhibition of IL-1beta expression in NAc region 0.2 mg/kg, ip; assay type: functional, organism-based
Mus musculus [17] = test: Anti-neuroinflammatory activity in morphine-induced BALB/c mouse assessed as inhibition of IL-1beta expression in VTA region 0.2 mg/kg, ip; assay type: functional, organism-based
Mus musculus [18] = test: Anti-neuroinflammatory activity in morphine-induced BALB/c mouse assessed as inhibition of Iba1 expression in mPFC region 0.2 mg/kg, ip; assay type: functional, organism-based
[19] = Tmax in BALB/c mouse plasma at 10 mg/kg, po measured upto 4 hrs by mS-HPLC analysis; assay type: ADME, organism-based
[20] = Tmax in BALB/c mouse brain at 10 mg/kg, po measured upto 4 hrs by mS-HPLC analysis; assay type: ADME, organism-based
[21] = Cmax in BALB/c mouse at 10 mg/kg, po measured upto 4 hrs by mS-HPLC analysis; assay type: ADME, organism-based; parameters: time < 4 hrs, dose 10 mg/kg, route po; conditions: in vivo
[22] = Half life in BALB/c mouse at 10 mg/kg, po measured upto 4 hrs by mS-HPLC analysis; assay type: ADME, organism-based; conditions: in vivo
[23] = MRT in BALB/c mouse at 10 mg/kg, po measured upto 4 hrs by mS-HPLC analysis; assay type: ADME, organism-based; conditions: in vivo
[24] = Ratio of drug concentration in blood to plasma in BALB/c mouse at 10 mg/kg, po measured at 3 hrs; assay type: ADME, organism-based; conditions: in vivo
[25] = AUC (0 to t) in BALB/c mouse at 10 mg/kg, po measured upto 4 hrs by mS-HPLC analysis; assay type: ADME, organism-based; conditions: in vivo
[26] = Toxicity in BALB/c mouse assessed as effect on respiratory rate at 20 mg/kg, ip measured on day 2 and 5; assay type: organism-based; conditions: in vivo, 120 h, time 5 day
[27] = Toxicity in BALB/c mouse assessed as cognitive impairment by measuring time spent on new arm at 20 mg/kg, ip administered once daily for 3 days and measured after 45 mins by Y maze test; assay type: organism-based; conditions: in vivo, 72.75 h, time 4365 min
[28] = Toxicity in BALB/c mouse assessed as rewarding effect at 20 mg/kg, ip measured after 6 days by CPP analysis; assay type: organism-based; conditions: in vivo, 144 h, time 6 day
[29] = Toxicity in BALB/c mouse assessed as effect on locomotor activity at 20 mg/kg, ip measured administered once daily for 7 days and measured after 24 hrs by open field test; assay type: organism-based; conditions: in vivo, 192 h
[30] = Toxicity in BALB/c mouse assessed as effect on grooming behavior at 20 mg/kg, ip measured administered once daily for 7 days and measured after 24 hrs by open field test; assay type: organism-based; conditions: in vivo, 192 h
[31] = Toxicity in BALB/c mouse assessed as effect on rubbing behavior at 20 mg/kg, ip measured administered once daily for 7 days and measured after 24 hrs by open field test; assay type: organism-based; conditions: in vivo, 192 h
[32] = Toxicity in BALB/c mouse assessed as assessed as effect on body weight at 20 mg/kg, ip measured administered once daily for 7 days and; assay type: organism-based; conditions: in vivo, 168 h, time 7 day
[33] = biological target: Pyruvate kinase PKM (Mus musculus) (UniProt P52480); test: Competitive inhibition of CIAC001-P1 probe binding to PKM2 in mouse BV-2 cells at 20 uM pretreated for 2 hrs followed by UV light treatment and measured after 30 mins by silver staining based Streptavidin-pull down assay; assay type: cell-based; conditions: time 2.5 hrs
[34] = biological target: Pyruvate kinase PKM (Mus musculus) (UniProt P52480); test: Competitive inhibition of CIAC001-P2 probe binding to PKM2 in mouse BV-2 cells at 20 uM pretreated for 2 hrs followed by UV light treatment and measured after 30 mins by silver staining based Streptavidin-pull down assay; assay type: cell-based; conditions: time 2.5 hrs
[35] = biological target: Pyruvate kinase PKM (Mus musculus) (UniProt P52480); test: Binding affinity to PKM2 in mouse BV-2 cells at 20 uM by Western blot analysis; assay type: cell-based
[36] = biological target: Pyruvate kinase PKM (Mus musculus) (UniProt P52480); test: Binding affinity to PKM1 in mouse BV-2 cells at 20 uM by Western blot analysis; assay type: cell-based
[37] = biological target: Pyruvate kinase PKM (Mus musculus) (UniProt P52480); test: Binding affinity to PKM2 in mouse BV-2 cells assessed as thermal stabilization by measuring change in melting temperature incubated for 2 hrs by Western blot analysis; assay type: cell-based
Pyruvate kinase PKM = Pyruvate kinase PKM (Mus musculus, UniProt P52480); test: Binding affinity to PKM2 in mouse BV-2 cells by Western blot analysis; assay type: cell-based
[38] = biological target: Pyruvate kinase PKM (Mus musculus) (UniProt P52480); test: Activation of PKM2 in mouse BV-2 cells assessed as increase in ATP level at 10 uM measured for 6 hrs; assay type: cell-based; conditions: filed as activator
BV-2 [39] = test: Inhibition of LPS-induced PKM2 tetramer in mouse BV-2 cells at 10 uM; assay type: functional, cell-based
BV-2 [40] = test: Inhibition of LPS-induced PKM2 monomer in mouse BV-2 cells at 10 uM; assay type: functional, cell-based
BV-2 [41] = test: Inhibition of LPS-induced nuclear translocation in mouse BV-2 cells incubated for 6 hrs by Western blot analysis; assay type: functional, cell-based
BV-2 [42] = test: Inhibition of LPS-induced LDHA mRNA overexpression in mouse BV-2 cells at 10 uM incubated for 6 hrs; assay type: functional, cell-based
BV-2 [43] = test: Inhibition of LPS-induced LDH release in mouse BV-2 cells at 10 uM incubated for 6 hrs; assay type: functional, cell-based
Mus musculus [44] = test: Inhibition of morphine-induced Hif-1alpha overexpression in BALB/c mouse at 0.2 mg/kg, ip measured for 7 days; assay type: functional, organism-based; conditions: time 7.0 day
[45] = biological target: Cannabinoid receptor (Homo sapiens) (UniProt P34972+P21554); test: Agonist activity at CB1/CB2 (unknown origin) receptor expressed in HEK293 cells assessed as inhibition of forskolin-stimulated cAMP accumulation incubated for 2 hrs by microplate reader analysis; assay type: functional, cell-based; conditions: filed as agonist
Chain of Cannabinoid receptor (Homo sapiens) (P21554 whole entry, looked up): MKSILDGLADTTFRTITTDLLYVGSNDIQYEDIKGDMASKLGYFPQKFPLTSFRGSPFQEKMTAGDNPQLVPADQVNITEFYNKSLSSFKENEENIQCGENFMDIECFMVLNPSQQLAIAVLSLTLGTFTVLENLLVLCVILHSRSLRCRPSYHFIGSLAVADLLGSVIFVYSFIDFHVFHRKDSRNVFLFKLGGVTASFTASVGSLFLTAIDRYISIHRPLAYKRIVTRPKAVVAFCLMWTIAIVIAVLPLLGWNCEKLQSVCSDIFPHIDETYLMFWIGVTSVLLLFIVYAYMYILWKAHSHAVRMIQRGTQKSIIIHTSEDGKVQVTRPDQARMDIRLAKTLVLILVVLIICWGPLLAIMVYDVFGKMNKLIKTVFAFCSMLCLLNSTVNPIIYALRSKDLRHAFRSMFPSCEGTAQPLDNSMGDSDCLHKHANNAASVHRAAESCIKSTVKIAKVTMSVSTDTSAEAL
Chain of Cannabinoid receptor (Homo sapiens) (P34972 whole entry, looked up): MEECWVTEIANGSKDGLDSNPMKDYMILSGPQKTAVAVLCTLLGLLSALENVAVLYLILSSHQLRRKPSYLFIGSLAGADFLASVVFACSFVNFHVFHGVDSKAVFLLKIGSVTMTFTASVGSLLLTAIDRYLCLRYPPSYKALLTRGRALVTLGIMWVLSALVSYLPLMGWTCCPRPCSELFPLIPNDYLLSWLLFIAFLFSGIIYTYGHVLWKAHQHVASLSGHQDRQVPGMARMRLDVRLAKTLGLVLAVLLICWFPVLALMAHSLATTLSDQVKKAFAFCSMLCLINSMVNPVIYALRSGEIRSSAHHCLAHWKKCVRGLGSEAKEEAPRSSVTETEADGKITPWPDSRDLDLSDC

Chain of Pyruvate kinase PKM (Mus musculus) (P52480 whole entry): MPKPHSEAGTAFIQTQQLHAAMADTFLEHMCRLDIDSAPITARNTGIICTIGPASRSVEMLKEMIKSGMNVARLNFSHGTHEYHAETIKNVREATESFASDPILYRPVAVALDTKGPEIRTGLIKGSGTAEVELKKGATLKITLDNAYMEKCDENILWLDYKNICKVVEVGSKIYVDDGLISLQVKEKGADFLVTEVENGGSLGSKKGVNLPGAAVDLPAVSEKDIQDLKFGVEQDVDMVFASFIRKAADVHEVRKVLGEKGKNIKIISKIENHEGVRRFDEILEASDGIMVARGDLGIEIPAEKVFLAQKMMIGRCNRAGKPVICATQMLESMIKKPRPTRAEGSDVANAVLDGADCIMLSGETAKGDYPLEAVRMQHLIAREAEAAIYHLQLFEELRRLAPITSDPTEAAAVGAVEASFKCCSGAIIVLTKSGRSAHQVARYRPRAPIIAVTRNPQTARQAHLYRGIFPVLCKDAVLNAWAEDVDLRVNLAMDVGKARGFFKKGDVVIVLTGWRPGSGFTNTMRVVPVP
Chain of Pyruvate kinase PKM (P52480 whole entry): as above

## C=C(C)[C@@H]1CCC(C)=C[C@H]1c1c(O)cc(C(C)n2nccn2)cc1O (stereo partly specified)
BV-2 [1]
  IC50: 2500 nM
[2]
  IC50: 57800 nM
[3]
  selectivity ratio: 23.1
BV-2 [4]
  Activity: Dose-Dependent Effect
BV-2 [5]
  Activity: Dose-Dependent Effect
BV-2 [6]
  Activity: Dose-Dependent Effect
BV-2 [7]
  Activity: Active
BV-2 [8]
  Activity: Active
BV-2 [9]
  Activity: Active
BV-2 [10]
  Activity: Active
Mus musculus [11]
  Activity: Dose-Dependent Effect
Mus musculus [12]
  Activity: Active
Mus musculus [13]
  Activity: Active
Mus musculus [14]
  Activity: Active
Mus musculus [15]
  Activity: Active
Mus musculus [16]
  Activity: Active
Mus musculus [17]
  Activity: Active
Mus musculus [18]
  Activity: Active
[19]
  Tmax: 18 min
[20]
  Tmax: 30 min
[21]
  Cmax: 175 ng/g
[22]
  half-life: 48 min
[23]
  MRT: 54 min
[24]
  Ratio: < 200%
[25]
  AUCt: 172.8 ng·h/g
[26]
  Activity: Non-Toxic
[27]
  Activity: Non-Toxic
[28]
  Activity: Non-Toxic
[29]
  Activity: Non-Toxic
[30]
  Activity: Non-Toxic
[31]
  Activity: Non-Toxic
[32]
  Activity: Non-Toxic
[33]
  inhibition: Active
[34]
  inhibition: Active
[35]
  Activity: Active
[36]
  Activity: Active
[37]
  ΔTm: 3.9 °C
Pyruvate kinase PKM
  Kd: 2200 nM
[38]
  Activity: Active
BV-2 [39]
  inhibition: Active
BV-2 [40]
  inhibition: Active
BV-2 [41]
  inhibition: Active
BV-2 [42]
  inhibition: Active
BV-2 [43]
  inhibition: Active
Mus musculus [44]
  inhibition: Active
[45]
  Activity: Active
